Legend:
Assay type in all cases: in vivo, C57BL/6J mice
[1] = test system: EPO-induced secondary erythrocytosis model; assay: EPO-induced secondary erythrocytosis murine model: spleen index and CBC panel; settings: 30 mg/kg orally once daily
From the text: (§1) The EPO-induced secondary erythrocytosis model was used to evaluate the in vivo pharmacodynamic effect of GlyT1 inhibitor in preventing, treating, or reducing the progression rate and/or severity of polycythemia vera. Erythropoietin (EPO) stimulates the production of red blood cells and results in increased hematocrit in mice after daily dosing for 7 days at 50 IU. Therefore, the EPO model mimics the hematological parameters of polycythemia vera where JAK2 mutation drives the erythrocytosis. Briefly, 30 mg/kg of GlyT1 inhibitor bitopertin or vehicle control was administrated orally into wildtype C57BL/6J mice (10 mice per group) once daily from day 1 to day 15. 50 IU EPO was administrated daily by intraperitoneal route from day 8 to day 14 to induce erythrocytosis resembling the pathological process of polycythemia vera (FIG. 1A). Blood samples were collected from submaxillary on day 8 before the first EPO administration and on day 15, 6 hours after the last dose of GlyT1 inhibitor for CBC panel analysis using Sysmex XN-1000™ hematology analyzer. Bioanalysis of drug concentration was performed in plasma collected 6 hours after the last dose. All mice were weighed and humanely euthanized. The spleen was weighed and the spleen index was calculated via dividing the weight of spleen by the whole-body weight.

[2] = Plasma drug concentration in the EPO-induced erythrocytosis study; settings: C57BL/6J, mouse, po, 6 hours after the last dose, 30 mg/kg orally once daily day 1 to 15, mice (FIG. 1C)
From the text: as §1

[3] = Body weight in the EPO-induced erythrocytosis study; settings: 30 mg/kg orally once daily, 14-day treatment, EPO model (FIG. 1B)
From the text: as §1

[4] = test system: DPO-induced secondary erythrocytosis model; assay: DPO-induced secondary erythrocytosis murine model: CBC panel
Procedure: Darbepoietin-alpha (DPO) is a long-lasting analogue of EPO. To investigate the in vivo pharmacodynamic effect of GlyT1 inhibitor in preventing, treating, or reducing the progression rate and/or severity of polycythemia vera for longer periods, DPO was used to stimulate the production of red blood cells and mimicking the hematological features of polycythemia vera where JAK2 mutation drives the erythrocytosis.
(§2) Briefly, C57BL/6J mice were administrated with DPO subcutaneously at 10 μg/kg/week for 2 weeks to induce erythrocytosis resembling the pathological process of polycythemia vera (FIG. 2A). 30 mg/kg or 60 mg/kg of GlyT1 inhibitor bitopertin or vehicle control was administrated orally into wild type C57BL/6J mice (10 mice per group for the vehicle and 30 mg/kg groups; 15 mice for the 60 mg/kg group) once daily from day 7 to day 15. The 60 mg/kg group was dosed at 20 mg/kg on day 7, 40 mg/kg on day 8-9, 50 mg/kg on day 10-11, 60 mg/kg on day 12-15. Blood samples were collected from submaxillary on day 0 before the first DPO administration, on day 7 before the first dose of GlyT1 inhibitor, and on day 15, 6 hours after the dosing of GlyT1 inhibitor for CBC panel analysis using Sysmex XN-1000™ hematology analyzer.

[5] = Body weight in the DPO-induced erythrocytosis study; settings: 30 or 60 mg/kg orally once daily, 8-day treatment, DPO model (FIG. 2B)
Procedure: as §2

## C[C@H](Oc1ccc(S(C)(=O)=O)cc1C(=O)N1CCN(c2ncc(C(F)(F)F)cc2F)CC1)C(F)(F)F [bitopertin]
[1]; EPO model, day 15 (FIG. 1E)
  hematocrit (HCT %): reduced
[1]; EPO model, day 15 (FIG. 1F)
  RBC count: reduced
[1]; EPO model, day 15 (FIG. 1G)
  Hemoglobin levels: reduced
[1]; EPO 50 IU i.p. day 8-14, EPO + vehicle 1.56%, normal mice 0.39% (FIG. 1D)
  spleen index (spleen weight / whole-body weight): 1.26%
[2]
  concentration at 6 h: 639 ± 38 ng/mL
[3]
  body-weight changes: No major body-weight changes
[4]; 30 or 60 mg/kg orally once daily day 7-15, DPO model (FIG. 2F)
  reticulocyte hemoglobin (RET-He): significant reduction
[4]; 30 or 60 mg/kg orally once daily day 7-15, DPO model (FIG. 2G)
  mean corpuscular hemoglobin (MCH): significant reduction
[4]; 30 or 60 mg/kg orally once daily day 7-15, DPO model (FIG. 2H)
  mean corpuscular volume (MCV): slightly reduced
[4]; 30 or 60 mg/kg orally once daily day 7-15, DPO model, in a dose dependent manner (FIG. 2C)
  hematocrit (HCT %): reduced
[4]; 30 or 60 mg/kg orally once daily day 7-15, DPO model, in a dose dependent manner (FIG. 2D)
  RBC count: reduced
[4]; 30 or 60 mg/kg orally once daily day 7-15, DPO model, in a dose dependent manner (FIG. 2E)
  Hemoglobin levels (HGB): reduced
[5]
  body-weight changes: No major body-weight changes

— patent publication US20240269132A1, “COMPOSITIONS AND METHODS FOR TREATING POLYCYTHEMIA” (Disc Medicine, Inc., priority 0001, published 2024)
